According to PubChem BioAssay AID653 (University of Pittsburgh Molecular Library Screening Center, 2007):
Active and inactive are the calls of the source. The rule behind the calls is not given here.

These compounds were tested against Genome polyprotein (West Nile virus) (UniProt P06935) (assay: West Nile NS2B-NS3 proteinase blockers – biochemical, confirmation, dose response (AID 653)). Settings: WNV NS2B-NS3 protease enzymatic assay, fluorescence.
Genome polyprotein (West Nile virus), sequence (P06935 1371-1501 limits assumed): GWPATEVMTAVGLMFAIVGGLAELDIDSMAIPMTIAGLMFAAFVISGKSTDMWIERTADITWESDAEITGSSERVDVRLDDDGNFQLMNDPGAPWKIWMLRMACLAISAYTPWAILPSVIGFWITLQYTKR
Genome polyprotein (West Nile virus), sequence (P06935 1502-1679 limits assumed): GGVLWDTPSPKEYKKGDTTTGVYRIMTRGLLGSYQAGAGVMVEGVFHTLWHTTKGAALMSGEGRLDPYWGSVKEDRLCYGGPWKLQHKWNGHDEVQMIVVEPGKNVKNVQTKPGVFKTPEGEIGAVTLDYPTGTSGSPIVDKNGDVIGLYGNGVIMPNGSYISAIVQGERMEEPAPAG

| IC50 | Structure (SMILES) |
| --- | --- |
| > 50 µM (inactive) | COc1ccc(OC)c(C2C(C(N)=O)=C(C)Nc3nc(-c4cccc(Cl)c4)nn32)c1 (stereo not given) |
| 34.1 µM | COc1ccc(N=CC2=C(O)CCCC2=O)cc1 |
| > 50 µM (inactive) | COc1cccc(NC(=O)CSc2nc3n[nH]c(C)c3c(=N)n2-c2cccc(OC)c2)c1 |
| > 50 µM (inactive) | C/C(CC1(O)C(=O)N(Cc2ccccc2)c2ccccc21)=N\O (stereo not given) |
| > 50 µM (inactive) | COC(=O)CSC1=C(C#N)C(c2ccc(C)cc2)C2=C(CCCC2=O)N1 (stereo not given) |
